Experimental findings from patent US11814376B2, “Hepatitis b core protein modulators” (Assembly Biosciences, Inc., priority 2015, dated 2023) are described below.

One data set deals with AD38 cells. Nature of the data set: Viability of AD38 cells (Promega CellTiter-Glo). In kind it is cell-based. The settings on record: 10 μM compound, 6 days, CellTiter-Glo luminescence normalized to DMSO control (100%). In short, it runs like this:
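AD38 cells were seeded at 50,000/well on collagen-coated plates and treated with compound added as a 10× solution in 10% DMSO for 6 days at 37° C. Viability was measured by CellTiter-Glo luminescence in tetracycline-free medium with 2% FBS and 1% DMSO, and expressed as percent of DMSO control.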

In data set [1] the test system is HBV viral load in AD38 cells. Nature of the data set: Viral load production in AD38 cells, quantitative PCR of the core sequence in supernatant. The settings on record: Hepatitis B virus, 144 h, 10 μM compound, 6 days at 37° C., supernatant qPCR, relative to DMSO control; read-out: AD38 Viral Load (%) (VL with cmpd/VL in DMSO control) at 10 μM. In kind it is cell-based.

As to `COc1ccc(-c2ncc(CNC(=O)c3ccc4c(c3)NC(=O)c3ccccc3O4)s2)cn1` [compound 1705, N-((2-(6-methoxypyridin-3-yl)thiazol-5-yl)methyl)-11-oxo-10, 11-dihydrodibenzo [b, f] [1, 4] oxazepine-8-carboxamide], the “AD38 Viability Normalized Result (cmpd/DMSO %) at 10 μM” value in the data set with AD38 cells stood at 93%. In addition, the activity at 10 µM in data set [1] was found to be 3.7%.

On to `O=C(NCc1cnc(-c2ccc(O)nc2)s1)c1ccc2c(c1)NC(=O)c1ccccc1O2` [compound 1706, N-((2-(6-hydroxypyridin-3-yl)thiazol-5-yl)methyl)-11-oxo-10, 11-dihydrodibenzo [b, f] [1, 4] oxazepine-8-carboxamide], for which the “AD38 Viability Normalized Result (cmpd/DMSO %) at 10 μM” value in the data set on AD38 cells was found to be 103%. Also, the activity at 10 µM in data set [1] is 57.5%.

As for `Nc1ccc(-c2ncc(CNC(=O)c3ccc4c(c3)NC(=O)c3ccccc3O4)s2)cn1` [compound 1707, N-((2-(6-aminopyridin-3-yl)thiazol-5-yl)methyl)-11-oxo-10, 11-dihydrodibenzo [b, f] [1, 4] oxazepine-8-carboxamide], the “AD38 Viability Normalized Result (cmpd/DMSO %) at 10 μM” value in the data set with AD38 cells came to 88%. Besides, the activity at 10 µM in data set [1] was determined as 10.7%.

Consider `CN(C)c1ccc(-c2ncc(CNC(=O)c3ccc4c(c3)NC(=O)c3ccccc3O4)s2)cn1` [compound 1708], for which the “AD38 Viability Normalized Result (cmpd/DMSO %) at 10 μM” value in the data set on AD38 cells came out at 90%. For the same molecule, in data set [1], the activity at 10 µM turned out to be 0.8%.

Turning to `O=C(NCc1cnc(-c2cnc(O)nc2)s1)c1ccc2c(c1)NC(=O)c1ccccc1O2` [compound 1709, N-((2-(2-hydroxypyrimidin-5-yl)thiazol-5-yl)methyl)-11-oxo-10, 11-dihydrodibenzo [b, f] [1, 4] oxazepine-8-carboxamide], the “AD38 Viability Normalized Result (cmpd/DMSO %) at 10 μM” value in the data set on AD38 cells came out at 94%. In addition, the activity at 10 µM in data set [1] worked out at 51.1%.

Regarding `Nc1ncc(-c2ncc(CNC(=O)c3ccc4c(c3)NC(=O)c3ccccc3O4)s2)cn1` [compound 1710], the “AD38 Viability Normalized Result (cmpd/DMSO %) at 10 μM” value in the data set on AD38 cells stood at 96%. The activity at 10 µM in data set [1] turned out to be 39.9%.

On to `CN(C)c1ncc(-c2ncc(CNC(=O)c3ccc4c(c3)NC(=O)c3ccccc3O4)s2)cn1` [compound 1711], for which the “AD38 Viability Normalized Result (cmpd/DMSO %) at 10 μM” value in the data set on AD38 cells was found to be 96%. Further, the activity at 10 µM in data set [1] is 6.5%.

Turning to `CN1c2ccc(C(=O)NCc3cnc(-c4ccc(O)cc4)s3)cc2NC(=O)c2ccccc21` [compound 1732], the “AD38 Viability Normalized Result (cmpd/DMSO %) at 10 μM” value in the data set on AD38 cells is 100%. Further, the activity at 10 µM in data set [1] came to 18.8%.

In the case of `O=C(NCc1cnc(-c2ccc(O)cc2)s1)c1ccc2c(c1)NC(=O)c1ccccc1C2` [compound 1734], in the data set with AD38 cells, the “AD38 Viability Normalized Result (cmpd/DMSO %) at 10 μM” value stood at 96%. In addition, the activity at 10 µM in data set [1] came to 10.6%.

On to `Cl.NCc1cnc(-c2ncc(CNC(=O)c3ccc4c(c3)NC(=O)c3ccccc3S4)s2)s1` [compound 1735, N-((5′-(aminomethyl)-[2, 2′-bithiazol]-5-yl)methyl)-11-oxo-10, 11-dihydrodibenzo [b, f] [1, 4] thiazepine-8-carboxamide hydrochloride], for which the “AD38 Viability Normalized Result (cmpd/DMSO %) at 10 μM” value with AD38 cells is 92%. For the same molecule, the activity at 10 µM in data set [1] came to 3.1%.

Take `Cc1cc(-c2ncc(CNC(=O)c3ccc4c(c3)NC(=O)c3ccccc3O4)s2)ccc1O` [compound 1736, N-((2-(4-hydroxy-3-methylphenyl)thiazol-5-yl)methyl)-11-oxo-10, 11-dihydrodibenzo [b, f] [1, 4] oxazepine-8-carboxamide]: the “AD38 Viability Normalized Result (cmpd/DMSO %) at 10 μM” value with AD38 cells is reported as 94%. Besides, in data set [1], the activity at 10 µM worked out at 6.8%.

On to `O=C(NCc1cnc(-c2ccc3[nH]ncc3c2)s1)c1ccc2c(c1)NC(=O)c1ccccc1O2` [compound 1737], for which, in the data set on AD38 cells, the “AD38 Viability Normalized Result (cmpd/DMSO %) at 10 μM” value was 112%. The activity at 10 µM in data set [1] was 7.2%.

As to `Cc1cc(-c2ncc(CNC(=O)c3ccc4c(c3)NC(=O)c3ccccc3O4)s2)cc(C)c1O` [compound 1738, N-((2-(4-hydroxy-3,5-dimethylphenyl)thiazol-5-yl)methyl)-11-oxo-10, 11-dihydrodibenzo [b, f] [1, 4] oxazepine-8-carboxamide], in the data set on AD38 cells, the “AD38 Viability Normalized Result (cmpd/DMSO %) at 10 μM” value was determined as 93%. In data set [1], the activity at 10 µM stood at 2.9%.

`O=C(NCc1cnc(-c2ccc(O)cc2)s1)c1ccc2c(c1)NC(=O)c1cc(F)ccc1S2` [compound 1746]: the “AD38 Viability Normalized Result (cmpd/DMSO %) at 10 μM” value with AD38 cells is given as 92%. In addition, the activity at 10 µM in data set [1] was 5.6%.

Turning to `O=C(NCc1cnc(-c2ccc(O)cc2)s1)c1ccc2c(c1)NC(=O)c1ccc(F)cc1S2` [compound 1747], in the data set with AD38 cells, the “AD38 Viability Normalized Result (cmpd/DMSO %) at 10 μM” value turned out to be 95%. Moreover, the activity at 10 µM in data set [1] came to 3%.

With `O=C(NCc1cnc(-c2ccc(O)cc2)s1)c1cc2c(cc1F)Sc1ccccc1C(=O)N2` [compound 1749], the “AD38 Viability Normalized Result (cmpd/DMSO %) at 10 μM” value with AD38 cells is 109%. For the same molecule, the activity at 10 µM in data set [1] came to 54.3%.

For `O=C1Nc2c(cc(F)c(C(=O)NCc3cnc(-c4ccc(O)cc4)s3)c2F)Sc2ccccc21` [compound 1750], the “AD38 Viability Normalized Result (cmpd/DMSO %) at 10 μM” value in the data set on AD38 cells is on record as 107%. Further, the activity at 10 µM in data set [1] was 1.1%.

Consider `CCN1c2ccc(C(=O)NCc3cnc(-c4ccc(O)cc4)s3)cc2NC(=O)c2ccccc21` [compound 1751], for which the “AD38 Viability Normalized Result (cmpd/DMSO %) at 10 μM” value in the data set with AD38 cells worked out at 18%. Further, in data set [1], the activity at 10 µM came out at 2.8%.

As to `O=C(NCc1cnc(-c2ccc(O)cc2)s1)c1ccc2c(c1)NC(=O)c1c(F)cccc1S2` [compound 1752], the “AD38 Viability Normalized Result (cmpd/DMSO %) at 10 μM” value in the data set on AD38 cells is reported as 98%. Besides, the activity at 10 µM in data set [1] came out at 29.8%.

As for `O=C(NCc1cnc(-c2ccc(O)cc2)s1)c1ccc2c(c1)NC(=O)c1cccc(F)c1S2` [compound 1753], in the data set on AD38 cells, the “AD38 Viability Normalized Result (cmpd/DMSO %) at 10 μM” value is recorded as 97%. Further, the activity at 10 µM in data set [1] is 2.4%.

With `CC1c2ccc(C(=O)NCc3cnc(-c4ccc(O)cc4)s3)cc2NC(=O)c2ccccc21` (stereo not shown) [compound 1754], the “AD38 Viability Normalized Result (cmpd/DMSO %) at 10 μM” value with AD38 cells is 93%. Also, the activity at 10 µM in data set [1] was found to be 1.6%.

Consider `Cc1c(C(=O)NCc2cnc(-c3ccc(O)cc3)s2)ccc2c1NC(=O)c1ccccc1S2` [compound 1755], for which the “AD38 Viability Normalized Result (cmpd/DMSO %) at 10 μM” value in the data set with AD38 cells worked out at 93%. In data set [1], the activity at 10 µM was found to be 0.4%.

On to `Cc1cc2c(cc1C(=O)NCc1cnc(-c3ccc(O)cc3)s1)NC(=O)c1ccccc1S2` [compound 1758], for which the “AD38 Viability Normalized Result (cmpd/DMSO %) at 10 μM” value in the data set with AD38 cells worked out at 15%. The activity at 10 µM in data set [1] stood at 3.8%.

As to `O=C(NCc1cnc(-c2ccc(O)cc2)s1)c1ccc2c(c1)NC(=O)c1cc(Cl)ccc1S2` [compound 1760], the “AD38 Viability Normalized Result (cmpd/DMSO %) at 10 μM” value with AD38 cells worked out at 94%. In data set [1], the activity at 10 µM was found to be 6.4%.

For the molecule `O=C(NCc1cnc(-c2ccc(O)cc2)s1)c1ccc2c(c1)NC(=O)c1ccc(Cl)cc1S2` [compound 1761], the “AD38 Viability Normalized Result (cmpd/DMSO %) at 10 μM” value with AD38 cells was 97%. Besides, the activity at 10 µM in data set [1] was 10.7%.

Regarding `Cc1nc(C)c(CNC(=O)c2ccc3c(c2)NC(=O)c2ccccc2S3(=O)=O)s1` [compound 1763], the “AD38 Viability Normalized Result (cmpd/DMSO %) at 10 μM” value in the data set on AD38 cells came out at 93%. In data set [1], the activity at 10 µM was 12.9%.

Turning to `NC(=O)c1ccc(-c2ncc(CNC(=O)c3ccc4c(c3)NC(=O)c3ccccc3S4(=O)=O)s2)cc1` [compound 1764, N-((2-(4-carbamoylphenyl)thiazol-5-yl)methyl)-11-oxo-10, 11 dihydrodibenzo [b, f] [1, 4] thiazepine-8-carboxamide 5,5-dioxide], the “AD38 Viability Normalized Result (cmpd/DMSO %) at 10 μM” value in the data set on AD38 cells is listed as 107%. Besides, the activity at 10 µM in data set [1] came to 1.1%.

For the molecule `Cc1c(C(=O)NCc2cnc(C(F)(F)F)s2)ccc2c1NC(=O)c1ccccc1S2` [compound 1766], the “AD38 Viability Normalized Result (cmpd/DMSO %) at 10 μM” value in the data set with AD38 cells is 98%. For the same molecule, the activity at 10 µM in data set [1] was 1.3%.

On to `Cc1c(C(=O)NCc2cnc(C(F)(F)F)s2)ccc2c1NC(=O)c1ccccc1S2(=O)=O` [compound 1767], for which, in the data set with AD38 cells, the “AD38 Viability Normalized Result (cmpd/DMSO %) at 10 μM” value is 94%. Further, the activity at 10 µM in data set [1] came to 0.5%.

As for `Cc1c(C(=O)NCc2cnc(-c3ccc(O)cc3)s2)ccc2c1NC(=O)c1ccccc1S2(=O)=O` [compound 1768], the “AD38 Viability Normalized Result (cmpd/DMSO %) at 10 μM” value in the data set on AD38 cells came to 94%. Further, the activity at 10 µM in data set [1] was 0.4%.

In the case of `Cc1nc(C)c(CNC(=O)c2ccc3c(c2)NC(=O)c2ccccc2O3)s1` [compound 1769], in the data set with AD38 cells, the “AD38 Viability Normalized Result (cmpd/DMSO %) at 10 μM” value came out at 101%. The activity at 10 µM in data set [1] was 43.3%.

`NC(=O)c1ccc(-c2ncc(CNC(=O)c3ccc4c(c3)NC(=O)c3ccccc3O4)s2)cc1` [compound 1770, N-((2-(4-carbamoylphenyl)thiazol-5-yl)methyl)-11-oxo-10, 11-dihydrodibenzo [b, f] [1, 4] oxazepine-8-carboxamide]: the “AD38 Viability Normalized Result (cmpd/DMSO %) at 10 μM” value with AD38 cells is given as 77%. Also, in data set [1], the activity at 10 µM is 32.5%.

`O=C(NCc1cnc(C(F)(F)F)s1)c1ccc2c(c1)NC(=O)c1ccccc1[S+]2[O-]` (stereo not shown) [compound 1772]: the “AD38 Viability Normalized Result (cmpd/DMSO %) at 10 μM” value in the data set on AD38 cells is listed as 109%. In addition, the activity at 10 µM in data set [1] is 7.1%.

Take `Cc1cc(-c2ncc(CNC(=O)c3ccc4c(c3)NC(=O)c3ccccc3S4(=O)=O)s2)ccc1O` [compound 1804, N-((2-(4-hydroxy-3-methylphenyl)thiazol-5-yl)methyl)-11-oxo-10, 11-dihydrodibenzo [b, f] [1, 4] thiazepine-8-carboxamide 5,5-dioxide]: in the data set with AD38 cells, the “AD38 Viability Normalized Result (cmpd/DMSO %) at 10 μM” value stood at 103%. Besides, the activity at 10 µM in data set [1] is 0.5%.

In the case of `O=C(NCc1cnc(-c2ccc3[nH]ncc3c2)s1)c1ccc2c(c1)NC(=O)c1ccccc1S2(=O)=O` [compound 1805], in the data set on AD38 cells, the “AD38 Viability Normalized Result (cmpd/DMSO %) at 10 μM” value is 97%. In addition, the activity at 10 µM in data set [1] worked out at 0.6%.
